Results published in patent US20230265089A1, “QUINOLINE DERIVATIVES, PHARMACEUTICALLY ACCEPTABLE SALTS, AND METHODS OF USE THEREOF” (vTv Therapeutics LLC, priority 2020, published 2023).

What follows are compounds tested against T1, PDE4D7 (Homo sapiens, UniProt Q08499) (assay: PDE4D7 TR-FRET assay). Settings: TR-FRET assay kit, FAM-cAMP substrate.
T1 construct: purchased BPS BioSciences 60708
Type: biochemical
Excerpt: According to BPS Biosciences product information, the PDE4D7 TR-FRET assay is designed for identification of inhibitors of PDE4D7 using TR-FRET (Time Resolved Fluorescence Resonance Energy Transfer) technology. The assay is based on the generation of FAM-labeled nucleotide monophosphates by the phosphodiesterase. These phosphate groups bind to terbium-labeled nanoparticles, resulting in energy transfer from the terbium to the FAM, which emits a fluorescent signal at 520 nm. The change in fluorescent intensity can be easily measured using a fluorescence plate reader.
The general assay protocol for PDE4D7 TR-FRET assay used to obtain the experimental data described below includes two steps: First, the fluorescent-labeled cAMP is incubated with a sample containing PDE4D7 for 1 hour. Second, a binding agent and a terbium donor are added to the reaction mix and incubated for 1 hour. Then, fluorescence intensity can be measured using a fluorescence reader. A detailed protocol is as follows
Step 1: Dilute 20 μM FAM-Cyclic-3′,5′-AMP substrate stock solution 100-fold with PDE buffer to make a 200 nM solution. Make only a sufficient quantity needed for the assay; store remaining stock solution in aliquots at −20° C. Add 25 μl of FAM-Cyclic-3′,5′-AMP (200 nM) to each well designated “Substrate Control”, “Positive Control”, and “Test Inhibitor”. Add 25 μl of PDE assay buffer to each well designated “Tb-only Control”. Add 5 μl of inhibitor solution to each well designated “Test Inhibitor”. Add 5 μl of the same solution without inhibitor (inhibitor buffer) to the “Tb-only Control”, “Substrate Control” and “Positive Control”. Thaw PDE4D7 on ice. Upon first thaw, briefly spin tube containing enzyme to recover the full contents of the tube. […]
Step 2: Make binding dilution buffer by mixing equal volumes of Binding buffer A and Binding buffer B. For example, mix 1 ml Binding buffer A with 1 ml Binding buffer B. Mix binding agent thoroughly and dilute binding agent 1:50 with binding dilution buffer made in Step 1. […] Read the fluorescent intensity in a microtiter-plate reader capable of TR-FRET.

T1 sequence (Q08499 1-748 isoform Q08499-11): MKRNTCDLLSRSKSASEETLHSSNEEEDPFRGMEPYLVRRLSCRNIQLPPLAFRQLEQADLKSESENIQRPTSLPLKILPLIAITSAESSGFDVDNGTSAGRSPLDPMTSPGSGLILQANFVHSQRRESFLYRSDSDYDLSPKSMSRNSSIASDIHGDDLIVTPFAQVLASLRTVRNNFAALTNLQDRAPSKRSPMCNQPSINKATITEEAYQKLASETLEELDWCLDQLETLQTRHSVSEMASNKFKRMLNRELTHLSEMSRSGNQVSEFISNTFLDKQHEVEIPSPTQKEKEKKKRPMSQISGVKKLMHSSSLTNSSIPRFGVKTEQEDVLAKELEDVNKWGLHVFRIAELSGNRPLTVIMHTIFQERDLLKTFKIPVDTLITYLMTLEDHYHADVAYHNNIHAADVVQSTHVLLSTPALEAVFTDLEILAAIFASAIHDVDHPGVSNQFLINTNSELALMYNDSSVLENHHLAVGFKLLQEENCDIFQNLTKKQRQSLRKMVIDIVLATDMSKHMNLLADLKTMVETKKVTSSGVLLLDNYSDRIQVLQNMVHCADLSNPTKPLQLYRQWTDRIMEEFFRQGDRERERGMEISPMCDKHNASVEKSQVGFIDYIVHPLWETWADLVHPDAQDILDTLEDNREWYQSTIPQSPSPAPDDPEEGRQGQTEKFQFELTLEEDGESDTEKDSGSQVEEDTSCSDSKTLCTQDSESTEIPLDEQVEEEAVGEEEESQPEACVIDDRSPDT

| Structure (SMILES) | IC50 [nM] |
| --- | --- |
| COc1cccc2c1ncc1c(=O)n([C@H]3CC[C@H](C(=O)O)CC3)c(=O)n(-c3cccc(Cl)c3)c12 [COMPOUND I * HCI (Batch 1), trans-4-[1-(3-chlorophenyl)-7-methoxy-2,4-dioxo-pyrimido[5,4-c]quinolin-3-yl]cyclohexanecarboxylic acid] | 1.5 |
| COc1cccc2c1ncc1c(=O)n([C@H]3CC[C@H](C(=O)O)CC3)c(=O)n(-c3cccc(Cl)c3)c12 [COMPOUND I * HCI (Batch 2), trans-4-[1-(3-chlorophenyl)-7-methoxy-2,4-dioxo-pyrimido[5,4-c]quinolin-3-yl]cyclohexanecarboxylic acid] | 3.3 |
| COc1cccc2c1ncc1c(=O)n([C@H]3CC[C@H](C(=O)O)CC3)c(=O)n(-c3cccc(Cl)c3)c12 [COMPOUND I * HCI (Batch 3), trans-4-[1-(3-chlorophenyl)-7-methoxy-2,4-dioxo-pyrimido[5,4-c]quinolin-3-yl]cyclohexanecarboxylic acid] | 1.1 |
